Literature values in patent US20110077278A1, “Antifungal compositions and methods” (Troy Corporation, priority 2009, published 2011).

Assays:
[1] = in metal working fluids; BBIT compared with IPBC; reported by US 6,861,395
certain fungi = conditions: BBIT in the presence of sodium omadine and certain fungi; US 6,861,395

In the case of `CCCCn1sc2ccccc2c1=O` [BBIT, 2-n-butyl-1,2-benzisothiazolin-3-one], the “stability to high temperature storage” value [1] is given as “considerably more stable to high temperature storage than IPBC” and the synergy (certain fungi) is given as “exhibits synergy in the presence of sodium omadine and certain fungi”.
